Assay results taken from US20160075695A1, “BENZIMIDAZOLE DERIVATIVES AS BROMODOMAIN INHIBITORS” (Gilead Sciences, Inc., priority 2013, published 2016).
Where two headings read alike, the source gives them in different places.

Tests used:
BRD4-2 = biological target: T1, BRD4-2 (Homo sapiens, UniProt O60885); assay: HTRF (TR-FRET) assay, BRD4-2 binding to acetylated histone H4 peptide
T1 construct: made in house; host or cells: Escherichia coli
Method: (§1) Binding of the two tandem bromodomains, BRD4-1 and BRD4-2, to an acetylated histone H4 peptide was measured using a homogeneous time resolved fluorescence resonance energy transfer (TR-FRET) assay. […] BRD4-1 and BRD4-2 were expressed and purified from Escherichia coli as N-terminal His6-tagged proteins. An XL665 labeled anti-His antibody (Cisbio) was used to specifically bind BRD4 and a cryptate labeled streptavidin protein was used because it specifically recognized the biotinylated H4 peptide. […] After an assay reaction time of 60 minutes at 25° C., binding was measured with 2 nM crytptate labeled streptavidin and 10 nM anti-His-XL665 antibody. TR-FRET signal was detected on an Envision plate reader (Ex: 320 nm; Em: 615/665 nm; 100 us delay and 200 μs read window). […] All IC50 values represent geometric mean values of a minimum of four determinations.

BRD4-1 [1] = biological target: T2, BRD4-1 (Homo sapiens, UniProt O60885); assay: HTRF (TR-FRET) assay, BRD4-1 binding to acetylated histone H4 peptide
T2 construct: made in house; host or cells: Escherichia coli
Method: as §1

BRD4-1 [2] = biological target: T2, BRD4-1; assay: Alpha assay, BRD4-1 binding to acetylated histone H4 peptide
Method: Binding of the bromodomain BRD4-I to an acetylated histone H4 peptide was measured using a bead-based Amplified Luminescent Proximity Homogeneous Assay (ALPHA). […] BRD4-I was expressed and purified from Escherichia coli as an N-terminal His6-tagged protein. Nickel-Chelate ALPHA acceptor beads (Perkin Elmer) were used to specifically bind BRD4-1 and ALPHA streptavidin donor beads (Perkin Elmer) were used because they specifically recognized the biotinylated H4 peptide. […] Assays were performed in 50 mM Hepes (pH 7.5), 150 mM NaCl, 0.1 mg/ml BSA, 0.01% (v/v) Brij, 0.5% (v/v) DMSO, 200 nM H4 peptide and 15 nM of BRD4-1 protein. After an assay reaction time of 60 minutes at 25° C., binding was measured with 20 μg/ml streptavidin donor beads and 20 μg/ml nickle-chelate acceptor beads. ALPHA signal was detected on an Envision plate reader (Ex: 320 nm; Em: 570 nm; Ex time: 180 ms). […] All IC50 values represent geometric mean values of a minimum of four determinations.

[3] = 120 nM BRD4-2, 200 nM H4 peptide, 60 minutes at 25° C., geometric mean of a minimum of four determinations, read-out: HTRF BRD4-2 (IC50)
[4] = 60 nM BRD4-1, 200 nM H4 peptide, 60 minutes at 25° C., geometric mean of a minimum of four determinations, read-out: HTRF BRD4-1 (IC50)
[5] = 15 nM BRD4-1, 200 nM H4 peptide, 60 minutes at 25° C., geometric mean of a minimum of four determinations, read-out: Alpha Assay (IC50)

Row | Compound | IC50 (BRD4-2; [3]) | IC50 (BRD4-1 [1]; [4]) | IC50 (BRD4-1 [2]; [5]) | IC50 (BRD4-2) | IC50 (BRD4-1 [2]) | IC50 (BRD4-1 [1])
1 | Cc1noc(C)c1-c1cc(S(=O)(=O)NC2CCCC2)c2nc(NCC3CC3)[nH]c2c1 [Compound 1020-1, N-Cyclopentyl-2-(cyclopropylmethylamino)-6-(3,5-dimethylisoxazol-4-yl)-1H-benzo[d]imidazole-4-sulfonamide] | 97.6 nM | 201 nM | – | – | – | –
2 | CSc1nc2c(S(=O)(=O)NC3CCCC3)cc(-c3c(C)noc3C)cc2[nH]1 [Compound 1020-4, N-Cyclopentyl-6-(3,5-dimethylisoxazol-4-yl)-2-(methylthio)-1H-benzo[d]imidazole-4-sulfonamide] | 230 nM | 337 nM | – | – | – | –
3 | Cc1noc(C)c1-c1cc(S(=O)(=O)NC2CCCC2)c2nc([S+](C)[O-])[nH]c2c1 (stereo not shown) [Compound 1020-5, N-Cyclopentyl-6-(3,5-dimethylisoxazol-4-yl)-2-(methylsulfinyl)-1H-benzo[d]imidazole-4-sulfonamide] | 357 nM | 616 nM | – | – | – | –
4 | Cc1cnn(C)c1-c1cc(-c2c(C)noc2C)cc2nc(C3CC3)[nH]c12 [Compound 1020-12, 4-(2-Cyclopropyl-7-(1,4-dimethyl-1H-pyrazol-5-yl)-1H-benzo[d]imidazol-5-yl)-3,5-dimethylisoxazole] | 69.2 nM | 138 nM | 46.2 nM | – | – | –
5 | Cc1noc(C)c1-c1cc(-c2cccnc2-c2ccccc2)c2nc(C3CC3)[nH]c2c1 [Compound 1020-19, 4-(2-Cyclopropyl-4-(2-phenylpyridin-3-yl)-1H-benzo[d]imidazol-6-yl)-3,5-dimethylisoxazole] | 172 nM | 134 nM | 28 nM | – | – | –
6 | CC/C=C(\CC)c1cc(-c2c(C)noc2C)cc2nc(C3CC3)[nH]c12 [Compound 1020-28, (E)-4-(2-Cyclopropyl-4-(hex-3-en-3-yl)-1H-benzo[d]imidazol-6-yl)-3,5-dimethylisoxazole] | 65.5 nM | 71.8 nM | 18.1 nM | – | – | –
7 | Cc1noc(C)c1-c1cc(C(C)c2ccc(F)cc2)c2[nH]c(C3CC3)nc2c1 (stereo not shown) [Compound 1020-44, 4-(2-Cyclopropyl-4-(1-(4-fluorophenyl)ethyl)-1H-benzo[d]imidazol-6-yl)-3,5-dimethylisoxazole] | 111 nM | 139 nM | 22 nM | – | – | –
8 | Cc1noc(C)c1-c1cc(NC2CCCC2)c2nc(C3CC3)[nH]c2c1 [Compound 1020-50, N-Cyclopentyl-2-cyclopropyl-6-(3,5-dimethylisoxazol-4-yl)-1H-benzo[d]imidazol-4-amine] | 318 nM | 299 nM | 125 nM | – | – | –
9 | Cc1ccnc(C)c1-c1cc(-c2c(C)noc2C)cc2nc(C3CC3)[nH]c12 [Compound 1020-57, 4-(2-Cyclopropyl-7-(2,4-dimethylpyridin-3-yl)-1H-benzo[d]imidazol-5-yl)-3,5-dimethylisoxazole] | 54.4 nM | 109 nM | 22.6 nM | – | – | –
10 | Cc1n[nH]c(C)c1-c1cc(-c2c(C)noc2C)cc2nc(C3CC3)n(C)c12 [Compound 1020-72, 4-(2-cyclopropyl-7-(3,5-dimethyl-1H-pyrazol-4-yl)-1-methyl-1H-benzo[d]imidazol-5-yl)-3,5-dimethylisoxazole] | 69.1 nM | 101 nM | 12.3 nM | – | – | –
11 | Cc1ccc2ncccc2c1-c1cc(-c2c(C)noc2C)cc2nc(C3CC3)n(C)c12 [Compound 1020-74, 4-(2-Cyclopropyl-1-methyl-7-(6-methylquinolin-5-yl)-1H-benzo[d]imidazol-5-yl)-3,5-dimethylisoxazole] | 112 nM | 97.1 nM | 18.9 nM | – | – | –
12 | Cc1nc2cc(-c3c(C)noc3C)cc(-c3c(C)n[nH]c3C)c2[nH]1 [Compound 1020-77, 4-(7-(3,5-Dimethyl-1H-pyrazol-4-yl)-2-methyl-1H-benzo[d]imidazol-5-yl)-3,5-dimethylisoxazole] | 64.8 nM | 244 nM | 42.7 nM | – | – | –
13 | Cc1n[nH]c(C)c1-c1cc(-c2c(C)noc2C)cc2nc(C3CC3(F)F)[nH]c12 (stereo not shown) [Compound 1020-78, 4-(2-(2,2-Difluorocyclopropyl)-7-(3,5-dimethyl-1H-pyrazol-4-yl)-1H-benzo[d]imidazol-5-yl)-3,5-dimethylisoxazole] | 94.1 nM | 161 nM | 25.1 nM | – | – | –
14 | Cc1n[nH]c(C)c1-c1cc(-c2c(C)noc2C)cc2[nH]c(NCC3CC3)nc12 [Compound 1020-79, N-(Cyclopropylmethyl)-4-(3,5-dimethyl-1H-pyrazol-4-yl)-6-(3,5-dimethylisoxazol-4-yl)-1H-benzo[d]imidazol-2-amine] | 87.2 nM | 161 nM | 33.6 nM | – | – | –
15 | Cc1n[nH]c(C)c1-c1cc(-c2c(C)noc2C)cc2[nH]c(NC3CC3)nc12 [Compound 1020-81, N-Cyclopropyl-4-(3,5-dimethyl-1H-pyrazol-4-yl)-6-(3,5-dimethylisoxazol-4-yl)-1H-benzo[d]imidazol-2-amine] | 119 nM | 169 nM | 50.7 nM | – | – | –
16 | Cc1ccnc(C)c1-c1cc(-c2c(C)noc2C)cc2[nH]cnc12 [Compound 1020-84, 4-(4-(2,4-Dimethylpyridin-3-yl)-1H-benzo[d]imidazol-6-yl)-3,5-dimethylisoxazole] | 234 nM | 481 nM | 277 nM | – | – | –
17 | Cc1ccc2ncccc2c1-c1cc(-c2c(C)noc2C)cc2[nH]c(-c3cnn(C)c3)nc12 [Compound 1020-88, 3,5-Dimethyl-4-(2-(1-methyl-1H-pyrazol-4-yl)-4-(6-methylquinolin-5-yl)-1H-benzo[d]imidazol-6-yl)isoxazole] | 131 nM | 104 nM | 15.9 nM | – | – | –
18 | Cc1ccc2ncccc2c1-c1cc(-c2c(C)noc2C)cc2[nH]c(C(O)CCO)nc12 (stereo not shown) [Compound 1020-89, 1-(6-(3,5-dimethylisoxazol-4-yl)-4-(6-methylquinolin-5-yl)-1H-benzo[d]imidazol-2-yl)propane-1,3-diol] | 151 nM | 379 nM | 130 nM | – | – | –
19 | COc1nc2c(-c3c(C)ccc4ncccc34)cc(-c3c(C)noc3C)cc2[nH]1 [Compound 1020-90, 4-(2-methoxy-4-(6-methylquinolin-5-yl)-1H-benzo[d]imidazol-6-yl)-3,5-dimethylisoxazole] | 121 nM | 110 nM | 29.9 nM | – | – | –
20 | Cc1ccc2ncccc2c1-c1cc(-c2c(C)noc2C)cc2[nH]c(C(F)(F)F)nc12 [Compound 1020-92, 3,5-Dimethyl-4-(4-(6-methylquinolin-5-yl)-2-(trifluoromethyl)-1H-benzo[d]imidazol-6-yl)isoxazole] | 102 nM | 133 nM | 37.7 nM | – | – | –
21 | Cc1n[nH]c(C)c1-c1cc(-c2c(C)noc2C)cc2nc(N)[nH]c12 [Compound 1020-96, 4-(3,5-Dimethyl-1H-pyrazol-4-yl)-6-(3,5-dimethylisoxazol-4-yl)-1H-benzo[d]imidazol-2-amine] | 96.9 nM | 276 nM | 53.7 nM | – | – | –
22 | Cc1noc(C)c1-c1cc(C(O)(c2ccccc2)c2ccccc2)c2nc(C3CC3)[nH]c2c1 [Compound 1020-102, (2-Cyclopropyl-6-(3,5-dimethylisoxazol-4-yl)-1H-benzo[d]imidazol-4-yl)diphenylmethanol] | 75.7 nM | 101 nM | 14.3 nM | – | – | –
23 | CCC(CC)c1cc(-c2c(C)noc2C)cc2[nH]c(C3CC3)nc12 [Compound 1020-120, 4-(2-Cyclopropyl-4-(pentan-3-yl)-1H-benzo[d]imidazol-6-yl)-3,5-dimethylisoxazole] | – | – | – | 76.1 nM | 39.7 nM | 88.5 nM
24 | Cc1noc(C)c1-c1cc(C(O)C2CCCC2)c2nc(C3CC3)[nH]c2c1 (stereo not shown) [Compound 1020-121, Cyclopentyl(2-cyclopropyl-6-(3,5-dimethylisoxazol-4-yl)-1H-benzo[d]imidazol-4-yl)methanol] | 80.8 nM | 95.2 nM | 24.7 nM | – | – | –
25 | Cc1noc(C)c1-c1cc(S(=O)(=O)NC2CCCC2)c2nc(Cc3ccccc3)[nH]c2c1 [Compound 1020-141, 2-Benzyl-N-cyclopentyl-6-(3,5-dimethylisoxazol-4-yl)-1H-benzo[d]imidazole-4-sulfonamide] | 111 nM | 704 nM | – | – | – | –
26 | Cc1noc(C)c1-c1cc(S(=O)(=O)NC2CCCC2)c2nc(NCC(F)(F)F)[nH]c2c1 [Compound 1020-148, N-Cyclopentyl-6-(3,5-dimethylisoxazol-4-yl)-2-(2,2,2-trifluoroethylamino)-1H-benzo[d]imidazole-4-sulfonamide] | 180 nM | 186 nM | – | – | – | –
